Data: paper PMC8388771, “Cationic Peptidomimetic Amphiphiles Having a N-Aryl- or N-Naphthyl-1,2,3-Triazole Core Structure Targeting Clostridioides (Clostridium) difficile: Synthesis, Antibacterial Evaluation, and an In Vivo C. difficile Infection Model” (Antibiotics, 2021)
Converted amounts (≈) assume the structure as drawn. Where two headings read alike, the source gives them in different places.

Experiments:
E. coli ATCC 25922 [1] = assay: CO-ADD MIC assay, E. coli ATCC 25922; assay type: cell-based; details: for MIC: Escherichia coli, ATCC25922, Table S1
Source text: (§1) The N-arytriazole and N-naphthyltriazole peptidomimetics were subjected to antimicrobial screening. […] Vancomycin, colistin, fluconazole, and tamoxifen were used as positive controls (see Table 1 for details).
(§2) Secondary screening (MRSA and Gram-negative bacteria) and cytotoxicity assay–performed by the Community for Open Antimicrobial Drug Discovery (CO-ADD). Samples were provided to CO-ADD [29] for antimicrobial screening by whole cell growth inhibition assays.
(§3) Bacterial Inhibition–MIC Assay. These were performed as described previously.

C. difficile 132 (RT027) = assay: Primary MIC assay, C. difficile 132 (RT027); assay type: cell-based, Clostridioides difficile; details: Clostridioides difficile, read-out: MIC C. difficile 132 (RT027)
Protocol: as §1
(§4) Primary screening (Gram-positive bacteria). Primary MIC assays were performed as described by the Clinical and Laboratory Standards Institute for aerobic and anaerobic bacteria. MIC values for vancomycin were within acceptable QC ranges.

[2] = Cytotoxicity (CC50) assay by CO-ADD; assay type: cell-based, human; details: human, HEK293 cells (ATCC CRL-1573); Table 1; cytotoxicity on HEK293 cells, tested at ≤32 µg/mL
Source text: as §1, §2
Cytotoxicity Assay. These were performed as described previously.

[3] = tested on: Cryptococcus neoformans var. grubii ATCC 208821; assay: CO-ADD MIC assay, C. neoformans var. grubii ATCC 208821; assay type: cell-based; details: Cryptococcus neoformans, ATCC208821, Table S1
Source text: as §1, §2

E. faecalis ATCC 29212 = assay: Primary MIC assay, E. faecalis ATCC 29212; assay type: cell-based, Enterococcus faecalis; details: Enterococcus faecalis
Protocol: as §1, §4

C. albicans ATCC 90028 = assay: CO-ADD MIC assay, C. albicans ATCC 90028; assay type: cell-based; details: Candida albicans, ATCC90028, Table S1
Source text: as §1, §2

[4] = tested on: K. pneumoniae ATCC 700603; assay: CO-ADD MIC assay, K. pneumoniae ATCC 700603; assay type: cell-based; details: for MIC: Klebsiella pneumoniae, ATCC700603, Table S1, multi-drug resistant
Source text: as §1, §2, §3

P. aeruginosa ATCC 27853 = assay: CO-ADD MIC assay, P. aeruginosa ATCC 27853; assay type: cell-based; details: for MIC: Pseudomonas aeruginosa, ATCC27853, Table S1
Source text: as §1, §2, §3

A. baumannii ATCC 19606 = assay: CO-ADD MIC assay, A. baumannii ATCC 19606; assay type: cell-based; details: for MIC: Acinetobacter baumannii, ATCC19606, Table S1
Source text: as §1, §2, §3

S. aureus ATCC 29213 = assay: Primary MIC assay, S. aureus ATCC 29213; assay type: cell-based; details: Staphylococcus aureus
Protocol: as §1, §4

S. pneumoniae ATCC 49619 = assay: Primary MIC assay, S. pneumoniae ATCC 49619; assay type: cell-based, Streptococcus pneumoniae; details: Streptococcus pneumoniae
Protocol: as §1, §4

human erythrocytes = assay: Hemolysis assay, HC50 determination; assay type: cell-based
Protocol: Hemolysis assay (human erythrocytes)–HC50 determination. These were performed as described previously.

S. aureus NCTC 10442 = assay: Primary MIC assay, S. aureus NCTC 10442 (MRSA); assay type: cell-based; details: Staphylococcus aureus
Protocol: as §1, §4

C. difficile ATCC 700057 = assay: Primary MIC assay, C. difficile ATCC 700057; assay type: cell-based, Clostridioides difficile; details: Clostridioides difficile
Protocol: as §1, §4

E. coli ATCC 25922 [5] = assay: Primary MIC assay, E. coli ATCC 25922; assay type: cell-based; details: for MIC: Escherichia coli
S. aureus ATCC 43300 = assay: CO-ADD MIC assay, S. aureus ATCC 43300 (MRSA); assay type: cell-based; details: Staphylococcus aureus, read-out: MIC S. aureus ATCC 43300
Source text: as §1, §2, §3

[6] = ATCC29212, Table 1, read-out: MIC E. faecalis ATCC 29212
[7] = ATCC29213, Table 1, read-out: MIC S. aureus ATCC 29213
[8] = ATCC49619, Table 1, read-out: MIC S. pneumoniae ATCC 49619
[9] = Table 1, lysis of human erythrocytes
[10] = Table S1, footnote says lysis of sheep erythrocytes
[11] = Table 1, MRSA, read-out: MIC S. aureus NCTC 10442
[12] = ATCC700057, Table 1, read-out: MIC C. difficile ATCC 700057
[13] = ATCC25922, Table 1, read-out: MIC E. coli ATCC 25922

Compound	MIC (E. coli ATCC 25922 [1]) [mg/L]	MIC (C. difficile 132 (RT027); Table 1) [mg/L]	CC50 [2] [mg/L]	MIC (E. faecalis ATCC 29212; [6]) [mg/L]	MIC (C. albicans ATCC 90028) [mg/L]	MIC [4] [mg/L]	MIC (P. aeruginosa ATCC 27853) [mg/L]	MIC (A. baumannii ATCC 19606) [mg/L]	MIC (S. aureus ATCC 29213; [7]) [mg/L]	MIC (S. pneumoniae ATCC 49619; [8]) [mg/L]	HC50 (human erythrocytes; [9]) [µg/mL]	HC50 (human erythrocytes; [10]) [µg/mL]	MIC (S. aureus NCTC 10442; [11]) [mg/L]	MIC (C. difficile ATCC 700057; [12]) [mg/L]	MIC (E. coli ATCC 25922 [5]; [13]) [mg/L]	MIC (S. aureus ATCC 43300; Table S1, MRSA, CO-ADD) [mg/L]	further results
CC(C)CCc1cn(-c2c(OCC(=O)N[C@H](CCCNC(=N)N)Cn3cc(CC4CCCCC4)nn3)ccc3ccccc23)nn1.Cl [Compound 22]	32	32	> 32	8	16	> 32	> 32	> 32	4	8	>32	> 32	4	32	32	4	MIC [3]: 32 mg/L
CC(C)CCc1cnnn1-c1c(OCC(=O)N[C@H](CCCCN)C(=O)N[C@H](CCCNC(=N)N)Cn2cc(Cc3ccccc3)nn2)ccc2ccccc12.Cl.Cl [Compound 45]	32	128	> 32	64	> 32	> 32	32	> 32	16	4	>32	> 32	16	128	128	16	
Cl.Cl.N=C(N)NCCC[C@H](Cn1cc(Cc2ccccc2)nn1)NC(=O)[C@@H](CCCCN)NC(=O)COc1ccccc1-c1cn(Cc2ccccc2)nn1 [Compound 46]	> 32	128	> 32	64	32	> 32	> 32	> 32	32	16	>32	> 32	32	128	128	16	
OC(Cn1cncn1)(Cn1cncn1)c1ccc(F)cc1F [flucona-zole, fluconazole, reference compound]					0.125 (≈ 0.408 µM)												MIC [3]: 0.25 mg/L (≈ 0.816 µM)
CC/C(=C(\c1ccccc1)c1ccc(OCCN(C)C)cc1)c1ccccc1 [tamoxifen, reference compound]			13.1 (≈ 35.3 µM)														
CN[C@H](CC(C)C)C(=O)N[C@H]1C(=O)N[C@@H](CC(N)=O)C(=O)N[C@H]2C(=O)N[C@H]3C(=O)N[C@H](C(=O)N[C@H](C(=O)O)c4cc(O)cc(O)c4-c4cc3ccc4O)[C@H](O)c3ccc(c(Cl)c3)Oc3cc2cc(c3O[C@@H]2O[C@H](CO)[C@@H](O)[C@H](O)[C@H]2O[C@H]2C[C@](C)(N)[C@H](O)[C@H](C)O2)Oc2ccc(cc2Cl)[C@H]1O [vanc, vancomycin, reference compound]																	MIC (C. difficile 132 (RT027)): 0.5 mg/L (≈ 0.345 µM); MIC (E. faecalis ATCC 29212; ATCC29212, read-out: MIC E. faecalis ATCC 29212): 4 mg/L (≈ 2.76 µM); MIC (S. aureus ATCC 29213; ATCC29213, read-out: MIC S. aureus ATCC 29213): 1 mg/L (≈ 0.69 µM); MIC (S. pneumoniae ATCC 49619; ATCC49619, read-out: MIC S. pneumoniae ATCC 49619): 1 mg/L (≈ 0.69 µM); MIC (S. aureus NCTC 10442; MRSA / NCTC 10442 / NCTC 104422, read-out: MIC S. aureus NCTC 104422): 1 mg/L (≈ 0.69 µM); MIC (S. aureus NCTC 10442; read-out: MIC S. aureus NCTC 10442): 1 mg/L (≈ 0.69 µM); MIC (C. difficile ATCC 700057; ATCC700057, read-out: MIC C. difficile ATCC 700057): 0.5 mg/L (≈ 0.345 µM); MIC (E. coli ATCC 25922 [5]; ATCC25922, read-out: MIC E. coli ATCC 25922): > 16 mg/L; MIC (S. aureus ATCC 43300): 1 mg/L (≈ 0.69 µM)
colistin [reference compound]																	MIC E. coli ATCC 25922 (E. coli ATCC 25922 [1]; Table S1): 0.125 mg/L; MIC K. pneumoniae ATCC 700603 ([4]; Table S1, multi-drug resistant): 0.25 mg/L; MIC P. aeruginosa ATCC 27853 (P. aeruginosa ATCC 27853; Table S1): 0.25 mg/L; MIC A. baumannii ATCC 19606 (A. baumannii ATCC 19606; Table S1): 0.25 mg/L; MIC E. coli ATCC 25922 (E. coli ATCC 25922 [5]; Table 1): 0.125 mg/L
